Measured values as given in patent publication US12655099B2, “Substituted phenyl sulfide compound and application thereof” (SHENYANG SINOCHEM AGROCHEMICALS R&D CO., LTD., priority 2020, dated 2026).

How the values were obtained:
[1] = system: Egg of Spider Mite (Tetranychus Cinnabarinus); assay: Activity against egg of spider mite, POTTER spray tower, incubation inhibition; format: in vivo; conditions: spider mite eggs; for inhibition at 1.25 µg/mL: Tetranychus cinnabarinus, read-out: Inhibition Rate (%)
Description: According to the solubility of test compounds, the compounds were dissolved with acetone or dimethyl sulfoxide, and then diluted with 0.1% aqueous solution of Tween 80 to form 50 ml test liquid and the content of the acetone or the dimethyl sulfoxide in the total solution was not more than 10% for later use. The leaves of bean were chopped into leaf discs and put into a petri dish. Female adult mites were inoculated. After laying eggs, the female adult mites were removed. After the number of eggs were investigated, the solution of certain concentrations of test compounds were sprayed with a POTTER spray tower, for 2 mL per treatment, and blank control was set. When all eggs in the blank control were incubated, the number of eggs which were incubated and unincubated was recorded, and incubation inhibition rate of the eggs was calculated.

[2] = system: Adult Spider Mite (Tetranychus cinnabarinus); assay: Activity against adult spider mite, spray on bean leaves, mortality after 72 h; format: in vivo; conditions: adult spider mites
Description: According to the solubility of test compounds, the compounds were dissolved with acetone or dimethyl sulfoxide, and then diluted with 0.1% aqueous solution of Tween 80 to form 50 ml test liquid and the content of the acetone or the dimethyl sulfoxide in the total solution was not more than 10% for later use. The adult spider mites were put into two true leaves of bean plants. After the number of mites were investigated, the solution of certain concentrations of test compounds was sprayed by using a handheld Airbrush. Three replicates were set for each treatment. Then the leaves were maintained in standard observation room. After 72 h, the number of surviving mites were observed, and the mortality rate was calculated.

Panonychus citri = assay: Field trial against Panonychus citri on citrus trees; format: in vivo; conditions: spray, citrus tree
Description: The trial was carried out in the citrus orchard in Yibin City, Sichuan Province. The test sample was “Dekopon”. The test citrus trees were 4 years old and the planting density was more than 70 plants/mu. The test compounds 6 and 14 were set at two different doses of 50 mg/L and 100 mg/L.
As the positive controls, Spirodiclofen suspension agent was set at one dose of 100 mg/L, and Pyridaben wettable powder was set at one dose of 100 mg/L. The test method was spraying by using Pentium 3WBD-20 sprayer, each treatment repeated three times. The number of initial mites was investigated before spraying, and the number of surviving mites was checked and recorded. The number of surviving mites was investigated on the 3 days, 7 days, 14 days, 21 days and 30 days after spraying respectively. The decline rate of mite populationg was counted and the control efficiency was calculated.

Panonychus ulmi = assay: Field trial for controlling Panonychus ulmi on apple trees; format: in vivo; conditions: spray, apple tree
Description: The trial was carried out in the orchard of Research Institute of Pomology of Chinese Academy of Agricultural Sciences. The test sample was Starkrimson apple tree, which was 14 years old and the intervals between two plants was 2×4 m. The test compound 14 was set at two different doses of 50 mg/L and 100 mg/L, and Spirodiclofen suspension agent as the positive control was set at one dose of 50 mg/L. The test method was spraying by using the stretcher power sprayer, each treatment repeated three times. The number of initial mites was investigated before spraying, and the number of surviving mites was checked and recorded. The number of surviving mites was investigated on the 3 days, 7 days, 14 days and 21 days after spraying respectively. The decline rate of mite population was counted and the control efficiency was calculated.
[formula] • The field trial results for compound 14 against Panonychus ulmi (Xingcheng, Liaoning, May, 2018) were shown in Table 4.Table 4

two-spotted spider mites = conditions: concentration of 50 ppm; cited from earlier work
[3] = Tetranychus cinnabarinus, 1.25 mg/L

Structure (SMILES): Cc1cc(F)c(-c2cccc([N+](=O)[O-])c2)cc1SCC(F)(F)F [Compound 5]
- Inhibition Rate (%) ([1]; 0.625 mg/L): 100%
- Inhibition Rate (%) ([1]; 1.25 mg/L): 100%
- Mortality (%) ([2]; 0.625 mg/L): 95.5%
- Mortality (%) ([2]; 1.25 mg/L): 100%

Structure (SMILES): Cc1cc(F)c(-c2cccc([N+](=O)[O-])c2)cc1[S+]([O-])CC(F)(F)F (centres unmarked) [Compound 6]
- Control efficiency (%) 3 days after pesticide application (Panonychus citri; 50 mg/L): 98.58%
- Control efficiency (%) 7 days after pesticide application (Panonychus citri; 50 mg/L): 96.69%
- Control efficiency (%) 14 days after pesticide application (Panonychus citri; 50 mg/L): 99.28%
- Control efficiency (%) 21 days after pesticide application (Panonychus citri; 50 mg/L): 95.86%
- Control efficiency (%) 30 days after pesticide application (Panonychus citri; 50 mg/L): 94.62%
- Mortality (%) ([2]; 0.625 mg/L): 80.6%
- Mortality (%) ([2]; 1.25 mg/L): 97.6%

Structure (SMILES): O=[N+]([O-])c1cccc(-c2cc(SCC(F)(F)F)c(Cl)cc2F)c1 [Compound 8]
- Mortality (%) ([2]; 0.625 mg/L): 65.2%
- Mortality (%) ([2]; 1.25 mg/L): 90.7%

Structure (SMILES): CSc1cccc(-c2cc(SCC(F)(F)F)c(C)cc2F)c1 [Compound 14]
- Inhibition Rate (%) ([1]; 0.625 mg/L): 65.3%
- Inhibition Rate (%) ([1]; 1.25 mg/L): 95.8%
- Control efficiency (%) 3 days after pesticide application (Panonychus citri; 50 mg/L): 99.61%
- Control efficiency (%) 7 days after pesticide application (Panonychus citri; 50 mg/L): 98.90%
- Control efficiency (%) 14 days after pesticide application (Panonychus citri; 50 mg/L): 99.08%
- Control efficiency (%) 21 days after pesticide application (Panonychus citri; 50 mg/L): 98.57%
- Control efficiency (%) 30 days after pesticide application (Panonychus citri; 50 mg/L): 97.35%
- Control efficiency (%) 3 days after pesticide application (Panonychus ulmi; 50 mg/L): 92.2%
- Control efficiency (%) 7 days after pesticide application (Panonychus ulmi; 50 mg/L): 86.4%
- Control efficiency (%) 14 days after pesticide application (Panonychus ulmi; 50 mg/L): 97.3%
- Control efficiency (%) 21 days after pesticide application (Panonychus ulmi; 50 mg/L): 93.2%
- Control efficiency (%) 3 days after pesticide application (Panonychus ulmi; 100 mg/L): 94.4%
- Control efficiency (%) 7 days after pesticide application (Panonychus ulmi; 100 mg/L): 96.6%
- Control efficiency (%) 14 days after pesticide application (Panonychus ulmi; 100 mg/L): 99.8%
- Control efficiency (%) 21 days after pesticide application (Panonychus ulmi; 100 mg/L): 99.1%

Structure (SMILES): Cc1cc(F)c(-c2cccc(SCC(F)(F)F)c2)cc1SCC(F)(F)F [Compound 19]
- Inhibition Rate (%) ([1]; 0.625 mg/L): 51.2%
- Inhibition Rate (%) ([1]; 1.25 mg/L): 81.1%

Structure (SMILES): Cc1cc(F)c(-c2ccc(C(F)(F)F)cc2)cc1SCC(F)(F)F [KC1, reference compound]
- inhibition at 1.25 µg/mL ([1]; 1.25 mg/L): 26.2%
- mortality at 1.25 µg/mL [2, 3]: 36.5%

Structure (SMILES): Cc1cc(F)c(-c2cccc(C(F)(F)F)c2)cc1SCC(F)(F)F [KC2, reference compound]
- inhibition at 1.25 µg/mL ([1]; 1.25 mg/L): 36.7%
- mortality at 1.25 µg/mL [2, 3]: 56.6%

Structure (SMILES): Cc1cc(F)c(-c2cccc(OC(F)(F)F)c2)cc1SCC(F)(F)F [KC3, reference compound]
- inhibition at 1.25 µg/mL ([1]; 1.25 mg/L): 20.7%
- mortality at 1.25 µg/mL [2, 3]: 50.7%

Structure (SMILES): Cc1cc(F)c(-c2cccc(SCc3ccccc3)c2)cc1SCC(F)(F)F [KC4]
- inhibition at 1.25 µg/mL ([1]; 1.25 mg/L): 40.8%
- lethal activity (two-spotted spider mites): more than 90%
- mortality at 1.25 µg/mL [2, 3]: 16.4%

Structure (SMILES): Cc1cc(F)c(-c2ccc([N+](=O)[O-])cc2)cc1SCC(F)(F)F [KC5]
- mortality at 0.625 µg/mL ([2]; Tetranychus cinnabarinus, 0.625 mg/L): 29.8%
- mortality at 1.25 µg/mL [2, 3]: 71.7%

Structure (SMILES): Cc1cc(F)c(-c2ccccc2[N+](=O)[O-])cc1SCC(F)(F)F [KC6]
- mortality at 1.25 µg/mL [2, 3]: 0%

Structure (SMILES): CC(C)(C)c1ccc(CSc2cnn(C(C)(C)C)c(=O)c2Cl)cc1 [Pyridaben, reference compound]
- Control efficiency (%) 3 days after pesticide application (Panonychus citri; 100 mg/L): 80.24%
- Control efficiency (%) 7 days after pesticide application (Panonychus citri; 100 mg/L): 61.51%
- Control efficiency (%) 14 days after pesticide application (Panonychus citri; 100 mg/L): 61.51%
- Control efficiency (%) 21 days after pesticide application (Panonychus citri; 100 mg/L): 51.62%
- Control efficiency (%) 30 days after pesticide application (Panonychus citri; 100 mg/L): 56.60%

Structure (SMILES): CCC(C)(C)C(=O)OC1=C(c2ccc(Cl)cc2Cl)C(=O)OC12CCCCC2 [Spirodiclofen, reference compound]
- Control efficiency (%) 3 days after pesticide application (Panonychus citri; 100 mg/L): 91.09%
- Control efficiency (%) 7 days after pesticide application (Panonychus citri; 100 mg/L): 80.88%
- Control efficiency (%) 14 days after pesticide application (Panonychus citri; 100 mg/L): 80.88%
- Control efficiency (%) 21 days after pesticide application (Panonychus citri; 100 mg/L): 72.63%
- Control efficiency (%) 30 days after pesticide application (Panonychus citri; 100 mg/L): 73.60%
- Control efficiency (%) 3 days after pesticide application (Panonychus ulmi; 50 mg/L): 49.6%
- Control efficiency (%) 7 days after pesticide application (Panonychus ulmi; 50 mg/L): 45.8%
- Control efficiency (%) 14 days after pesticide application (Panonychus ulmi; 50 mg/L): 90.3%
- Control efficiency (%) 21 days after pesticide application (Panonychus ulmi; 50 mg/L): 94.9%
